# Earlier results, collected in patent US5973199A, “Hydrosoluble organic salts of creatine” (priority 1994, dated 1999).
# Key:
# [1] = not given; remark: listed apart in the source
smiles,measurement,setting,value
"CN(CC(=O)O)C(=N)N [creatine, N-(aminoiminomethyl)-N-methylglycine]",tolerability of high doses,high doses of 5-10 g (mean body weights of 70 kg),well tolerated
same,toxicity,in vivo,lack of toxicity
same,creatine half-life in plasma,[1],1 to 1.5 h
